Results published in patent US7879876B2, “Sulfonamide derivatives and use thereof for the modulation of metalloproteinases” (Merck Serono SA, priority 2005, dated 2011).

Experiments:
Assay type in all cases: biochemical
human ADAM17 (TACE) = human ADAM17 (TACE) (Homo sapiens, UniProt P78536); assay: TACE enzyme inhibition assay
Method: Compounds of the invention were tested to assess their activities as inhibitors of MMP-1, MMP-2, MMP-9, MMP-14, MMP-12 and TACE. MMP-9 Assay Protocol
Compounds of the invention can be tested for inhibitory activity against human ADAM17 in an assay using human Mca-(endo-1a-Dap(Dnp)-TNF-alpha(−5 to +6)amide as substrate (FEBS Letters, 2000, 275-279).
Stock solutions are prepared as followed: • Assay Buffer: 20 mM Hepes pH 7.5 (Fluka) containing 0.05% Brij 35 (Fluka) • Substrate: 6.1 mM human Mca-(endo-1a-Dap(Dnp)-TNF-alpha(−5 to +6)amide (Bachem) stock solution in 100% DMSO (stored at −20° C.); diluted to 5 μM in assay buffer. • Enzyme: Recombinant human ADAM17, appropriately diluted in assay buffer (1.5 μg/ml).
Test Compounds are prepared initially as 10 mM compound solution in 100% DMSO, diluted to 1 mM in 100% DMSO, then serially diluted 3-fold in 100% DMSO across a 96-well microtitre plate. Assay concentration range is typically between 100 μM to 0.01 nM. The assay is performed in a total volume of 100 μL per well in 96-well microtitre plates. Appropriate concentrations of test compounds dissolved in 10 μL of DMSO are added to the wells, followed by substrate solution (50 μL, 5 μM prepared by dilution of DMSO stock in assay buffer) and enzyme solution (40 μL). For each as say ten concentrations of test compound are examined in […]. Control wells lack either enzyme or test compound. The reactions are incubated at room temperature for 1.5 hours. The fluorescence at 405 nm is measured immediately with a fluorometer using 355 nm excitation, without stopping the reaction.
The effect of the test compound is determined from the dose response curve generated by the 10 duplicate concentrations of inhibitor. The IC50 (the concentration of compound required to give a 50% decrease in enzyme activity) is obtained by fitting data to the equation, Y=a+((b−a)/(1+(c/X)^d)). (Y=inhibition achieved for a particular dose; X=the dose in nM; a=minimum y or zero % inhibition; b=maximum y or 100% inhibition; c=is the IC50; d=is the slope). The result is rounded to one significant figure.

metalloelastase (MMP-12) = metalloelastase (MMP-12) (Homo sapiens, UniProt P39900); assay: MMP-12 enzyme inhibition assay (coumarin-labelled peptide substrate); settings: read-out: IC50 MMP12
Outline: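 Recombinant human MMP-12 assayed per the MMP-9 protocol: Tris-HCl pH 7.6 buffer with NaCl, CaCl2, Brij 35; McaPLGLDpaAR substrate, compounds 100 μM–5.1 nM in duplicate, 2 h at 37° C. Fluorescence read at 405 nm (320 nm excitation) without stopping; IC50 from four-parameter fit.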

[1] = molecular target: 92 kDa gelatinase (MMP-9) (Homo sapiens, UniProt P14780); assay: MMP-9 enzyme inhibition assay (coumarin-labeled peptide substrate); settings: for inhibition at 5 µM / inhibition at 0.1 µM: read-out: percentage inhibition MMP9
Outline: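 Recombinant human MMP-9 (APMA-activated if needed) was assayed in 100 mM Tris-HCl pH 7.6, 100 mM NaCl, 10 mM CaCl2, 0.05% Brij 35, with McaPLGLDpaAR substrate at 37° C. for 2 h. Fluorescence was read at ex 320/em 405 nm over ten 3-fold compound doses (100 μM–5.1 nM) in duplicate. IC50 came from a four-parameter fit.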

metalloelastase (MMP-12), sequence (P39900 106-470): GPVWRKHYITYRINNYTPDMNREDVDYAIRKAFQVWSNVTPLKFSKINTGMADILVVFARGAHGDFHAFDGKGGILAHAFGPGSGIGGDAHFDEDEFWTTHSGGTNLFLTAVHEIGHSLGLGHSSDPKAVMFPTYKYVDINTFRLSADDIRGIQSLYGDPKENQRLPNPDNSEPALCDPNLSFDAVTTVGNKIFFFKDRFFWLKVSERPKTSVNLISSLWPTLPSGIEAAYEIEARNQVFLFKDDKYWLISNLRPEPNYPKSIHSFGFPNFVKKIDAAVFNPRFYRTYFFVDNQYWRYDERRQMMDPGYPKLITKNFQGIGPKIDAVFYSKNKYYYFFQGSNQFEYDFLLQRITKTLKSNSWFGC
92 kDa gelatinase (MMP-9), sequence (P14780 107-707 limits assumed): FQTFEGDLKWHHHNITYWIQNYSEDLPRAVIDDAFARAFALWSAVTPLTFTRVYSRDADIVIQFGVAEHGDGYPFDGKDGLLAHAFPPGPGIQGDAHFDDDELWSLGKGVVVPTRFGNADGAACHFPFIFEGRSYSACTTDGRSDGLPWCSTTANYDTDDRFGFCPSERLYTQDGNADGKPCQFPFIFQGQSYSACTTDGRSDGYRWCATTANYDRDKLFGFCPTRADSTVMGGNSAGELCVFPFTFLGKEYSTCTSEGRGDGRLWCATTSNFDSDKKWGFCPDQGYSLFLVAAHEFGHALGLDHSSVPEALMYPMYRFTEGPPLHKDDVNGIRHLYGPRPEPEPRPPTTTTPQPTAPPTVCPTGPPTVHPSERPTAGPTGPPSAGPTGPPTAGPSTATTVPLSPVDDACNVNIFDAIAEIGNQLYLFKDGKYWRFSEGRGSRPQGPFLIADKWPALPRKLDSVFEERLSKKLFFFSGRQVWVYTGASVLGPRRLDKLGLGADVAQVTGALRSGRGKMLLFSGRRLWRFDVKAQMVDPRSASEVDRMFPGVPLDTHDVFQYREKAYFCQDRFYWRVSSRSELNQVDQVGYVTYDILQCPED
human ADAM17 (TACE), sequence (P78536 215-824): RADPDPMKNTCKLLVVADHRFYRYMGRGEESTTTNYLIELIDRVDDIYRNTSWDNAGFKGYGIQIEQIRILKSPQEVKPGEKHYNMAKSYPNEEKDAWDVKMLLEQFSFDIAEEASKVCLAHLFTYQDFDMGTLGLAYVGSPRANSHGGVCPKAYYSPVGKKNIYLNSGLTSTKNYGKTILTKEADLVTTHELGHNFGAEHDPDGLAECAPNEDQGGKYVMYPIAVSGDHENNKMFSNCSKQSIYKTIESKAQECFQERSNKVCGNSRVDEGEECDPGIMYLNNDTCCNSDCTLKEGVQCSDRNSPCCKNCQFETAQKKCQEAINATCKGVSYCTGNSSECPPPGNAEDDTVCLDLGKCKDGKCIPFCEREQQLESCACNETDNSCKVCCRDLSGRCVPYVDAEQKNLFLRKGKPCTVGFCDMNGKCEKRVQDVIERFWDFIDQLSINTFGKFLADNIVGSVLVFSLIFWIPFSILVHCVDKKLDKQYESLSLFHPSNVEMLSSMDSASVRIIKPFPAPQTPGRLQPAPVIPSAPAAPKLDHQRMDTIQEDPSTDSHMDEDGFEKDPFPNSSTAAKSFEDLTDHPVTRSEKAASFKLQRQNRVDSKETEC

Row | IC50 (human ADAM17 (TACE)) | IC50 (metalloelastase (MMP-12)) | inhibition at 5 µM [1] | IC50 ([1]; read-out: IC50 MMP9) | inhibition at 0.1 µM [1] | Structure (SMILES)
1 | 0.683 µM | 0.02 µM | 28% |  |  | O=CN(O)C(CS(=O)(=O)N1Cc2ccccc2C1)C1CC1 (centres unmarked) [Example 72, N-[1-cyclopropyl-2-(1,3-dihydro-2H-isoindol-2-ylsulfonyl)-ethyl]-N-hydroxyformamide]
2 | 0.606 µM | 0.018 µM | 26% |  |  | O=CN(O)C(CS(=O)(=O)N1CCc2ccc(-c3ccccc3)cc2C1)C1CCCC1 (centres unmarked) [Example 69, N-{1-cyclopentyl-2-[(7-phenyl-3,4-dihydroisoquinolin-2(1H)-yl)sulfonyl]ethyl}-N-hydroxyformamide]
3 | 0.089 µM | 0.015 µM | 12% |  |  | O=CN(O)C(COc1ccccc1)CS(=O)(=O)N1CCc2ccc(Cl)cc2C1 (centres unmarked) [Example 61, N-[2-[(7-chloro-3,4-dihydroisoquinolin-2(1H)-yl)sulfonyl]-1-(phenoxymethyl)ethyl]-N-hydroxyformamide]
4 | 1.12 µM | 0.015 µM | 11% |  |  | CCCOc1ccc2c(c1)CN(S(=O)(=O)CC(CC(C)(C)C)N(O)C=O)CC2 (centres unmarked) [Example 40, N-(3,3-dimethyl-1-{[(7-propoxy-3,4-dihydroisoquinolin-2(1H)-yl)sulfonyl]methyl}butyl)-N-hydroxyformamide]
5 | 0.933 µM | 0.0025 µM | 40% |  |  | O=CN(O)C(CS(=O)(=O)N1CCc2cc(C(F)(F)F)ccc2C1)[C@H]1CCCO1 (stereo partly drawn) [Example 47, N-hydroxy-N-(1-[(2R)-tetrahydrofuran-2-yl]-2-{[6-(tri-fluoromethyl)-3,4-dihydroisoquinolin-2(1H)-yl]sulfonyl}ethyl)formamide]
6 | 0.49 µM | 0.027 µM | 13% |  |  | CC(C)(C)C(CS(=O)(=O)N1CCc2ccc(Cl)cc2C1)N(O)C=O (centres unmarked) [Example 65, N-(1-{[(7-chloro-3,4-dihydroisoquinolin-2(1H)-yl)sulfonyl]methyl}-2,2-dimethylpropyl)-N-hydroxyformamide]
7 | 0.506 µM | 0.0069 µM | 13% |  |  | O=CN(O)[C@H](CS(=O)(=O)N1CCc2ccc(C(F)(F)F)cc2C1)[C@H]1CCCO1 [Example 27, N-hydroxy-N-((1S)-1-[(2R)-tetrahydrofuran-2-yl]-2-{[7-(trifluoromethyl)-3,4-dihydroisoquinolin-2(1H)-yl]sulfonyl}ethyl)formamide]
8 | > 5 µM | 0.168 µM | 4% |  |  | O=CN(O)[C@@H](CS(=O)(=O)N1CCc2ccc(C(F)(F)F)cc2C1)[C@H]1CCCO1 [Example 32, N-hydroxy-N-((1R)-1-[(2R)-tetrahydrofuran-2-yl]-2-{[7-(trifluoromethyl)-3,4-dihydroisoquinolin-2(1H)-yl]sulfonyl}ethyl)formamide]
9 | 0.067 µM | 0.027 µM |  | > 5 µM |  | O=CN(O)C(CCc1ccccc1)CS(=O)(=O)N1CCc2ccccc2C1 (centres unmarked) [Example 1, N-{1-[(3,4-dihydroisoquinolin-2(1H)-ylsulfonyl)methyl]-3-phenylpropyl}-N-hydroxyformamide]
10 | 0.397 µM | 0.0035 µM | 72% |  | 4% | CC(C)C(CS(=O)(=O)N1CCc2ccc(-c3ccc(F)cc3)cc2C1)N(O)C=O (centres unmarked) [Example 50, N-[1-({[7-(4-fluorophenyl)-3,4-dihydroisoquinolin-2(1H)-yl]sulfonyl}methyl)-2-methylpropyl]-N-hydroxyformamide]
11 | 0.394 µM | 0.006 µM | 71% |  |  | O=CN(O)C(CS(=O)(=O)N1CCc2ccc(-c3ccc(F)cc3)cc2C1)C1CC1 (centres unmarked) [Example 75, N-(1-cyclopropyl-2-{[7-(4-fluorophenyl)-3,4-dihydro-isoquinolin-2(1H)-yl]sulfonyl}ethyl)-N-hydroxyformamide]
12 | 0.092 µM | 0.046 µM | 10% |  |  | O=CN(O)C(CS(=O)(=O)N1CCc2ccc(F)cc2C1)c1ccoc1 (centres unmarked) [Example 52, N-[2-[(7-fluoro-3,4-dihydroisoquinolin-2(1H)-yl)sulfonyl]-1-(3-furyl)ethyl]-N-hydroxyformamide]
13 | > 5 µM | 0.0049 µM | 28% |  |  | CC(C)c1ccc2c(c1)CCN(S(=O)(=O)CC(C1CC1)N(O)C=O)C2 (centres unmarked) [Example 85, N-{1-cyclopropyl-2-[(6-isopropyl-3,4-dihydroisoquinolin-2(1H)-yl)sulfonyl]ethyl}-N-hydroxyformamide]
14 | 0.277 µM | 0.014 µM | 40% |  |  | O=CN(O)[C@H](CS(=O)(=O)N1Cc2ccc(F)cc2C1)[C@H]1CCCO1 [Example 29, N-{(1S)-2-[(5-fluoro-1,3-dihydro-2H-isoindol-2-yl)-sulfonyl]-1-[(2R)-tetrahydrofuran-2-yl]ethyl}-N-hydroxyformamide]
15 | 1.09 µM | 0.0042 µM | 58% |  |  | CCC(CC)C(CS(=O)(=O)N1CCc2cc(C(F)(F)F)ccc2C1)N(O)C=O (centres unmarked) [Example 37, N-[2-ethyl-1-({[6-(trifluoromethyl)-3,4-dihydroisoquinolin-2(1H)-yl]sulfonyl}methyl)butyl]-N-hydroxyformamide]
16 | 0.079 µM | 0.069 µM | 0% |  |  | O=CN(O)C(CS(=O)(=O)N1CCc2ccc(F)cc2C1)C1CCCC1 (centres unmarked) [Example 60, N-{1-cyclopentyl-2-[(7-fluoro-3,4-dihydroisoquinolin-2(1H)-yl)sulfonyl]ethyl}-N-hydroxyformamide]
17 | > 5 µM | 0.0032 µM | 68% |  | 1% | CC(C)(C)CC(CS(=O)(=O)N1CCc2cc(C(F)(F)F)ccc2C1)N(O)C=O (centres unmarked) [Example 43, N-[3,3-dimethyl-1-({[6-(trifluoromethyl)-3,4-dihydro-isoquinolin-2(1H)-yl]sulfonyl}methyl)butyl]-N-hydroxyformamide]
18 | > 5 µM | 0.032 µM | 3% |  |  | CCC#CCC(C)(C)C(CS(=O)(=O)N1CCc2cc(C(F)(F)F)ccc2C1)N(O)C=O (centres unmarked) [Example 30, N-[2,2-dimethyl-1-({[6-(trifluoromethyl)-3,4-dihydro-isoquinolin-2(1H)-yl]sulfonyl}methyl)hept-4-yn-1-yl]-N-hydroxyformamide]
19 | 1.1 µM | 0.01 µM | 62% |  |  | CC(C)(C)CC(CS(=O)(=O)N1Cc2ccc(F)cc2C1)N(O)C=O (centres unmarked) [Example 26, N-(1-{[(5-fluoro-1,3-dihydro-2H-isoindol-2-yl)sulfonyl]methyl}-3,3-dimethylbutyl)-N-hydroxyformamide]
20 | 0.353 µM | 0.006 µM | 42% |  |  | CCC(CC)C(CS(=O)(=O)N1CCc2cc(Cl)c(Cl)cc2C1)N(O)C=O (centres unmarked) [Example 34, N-(1-{[(6,7-dichloro-3,4-dihydroisoquinolin-2(1H)-yl)-sulfonyl]methyl}-2-ethylbutyl)-N-hydroxyformamide]
21 | 0.427 µM | 0.027 µM | 15% |  |  | COc1ccc2c(c1)CN(S(=O)(=O)CC(CCC1CCCO1)N(O)C=O)CC2 (centres unmarked) [Example 33, N-hydroxy-N-[1-{[(7-methoxy-3,4-dihydroisoquinolin-2(1H)-yl)sulfonyl]methyl}-3-(tetrahydrofuran-2-yl)propyl]formamide]
22 | > 5 µM | 0.04 µM | 3% |  |  | CC(C)(Cc1ccccc1)C(CS(=O)(=O)N1CCc2cc(C(F)(F)F)ccc2C1)N(O)C=O (centres unmarked) [Example 31, N-[2,2-dimethyl-3-phenyl-1-({[6-(trifluoromethyl)-3,4-dihydroisoquinolin-2(1H)-yl]sulfonyl}methyl)propyl]-N-hydroxyformamide]
23 | 0.268 µM | 0.009 µM | 31% |  |  | O=CN(O)C(CS(=O)(=O)N1CCc2ccc(-c3ccsc3)cc2C1)C1CCCC1 (centres unmarked) [Example 68, N-(1-cyclopentyl-2-{[7-(3-thienyl)-3,4-dihydroisoquinolin-2(1H)-yl]sulfonyl}ethyl)-N-hydroxyformamide]
